# Laboratory results from PMC7823652 (Viruses, 2020).
# Read-outs that look alike come from different tables or passages of the source.
# What was measured:
# [1] = tested on: ZIKV; test: Image-based phenotypic antiviral screen in ZIKV-infected U87 cells; assay type: cell-based, Zika virus (strain H/PF/2013); conditions: for inhibition at 10 µM: Zika virus, U-87 MG
# [2] = Screen cytotoxicity by nuclei count in ZIKV-infected U87 cells; assay type: cell-based; conditions: human, ZIKV-infected U87 cells
# [3] = tested on: HAZV; test: microbe, parasite or virus in culture; assay type: cell-based, Hazara virus (isolate JC280); conditions: for inhibition at 10 µM: Hazara virus, SW13, 24 h
# [4] = tested on: ZIKV; test: Antiviral dose-response in ZIKV-infected U87 cells (infected cells, viral titer); assay type: cell-based, Zika virus (strain H/PF/2013); conditions: Zika virus, U-87 MG; for IC50: ZIKV; for EC50: U87, ZIKV MOI 1, 48 h
# [5] = tested on: ZIKV; test: Antiviral dose-response in ZIKV-infected Vero cells; assay type: cell-based, Zika virus (strain H/PF/2013); conditions: Zika virus
# [6] = tested on: U87 cells; test: Cell viability by nuclei count in ZIKV-infected U87 cells; assay type: cell-based, Human
# [7] = tested on: Vero cells; test: Cell viability by nuclei count in ZIKV-infected Vero cells; assay type: cell-based, African Green Monkey
# [8] = Cell viability assay (Resazurin), uninfected U87 cells; assay type: cell-based, Human; conditions: human, read-out: Viability CC50 [µM] (95%-CI)
# [9] = tested on: U87 cells; test: as above; assay type: cell-based, Human; conditions: Homo sapiens, U-87 MG; U87, Resazurin, all measured time points (24, 48 or 72 h); read-out: IC50 (toxicity profile, cellular viability)
# [10] = in vitro; assay type: cell-based; conditions: African green monkey
# [11] = tested on: ZIKV; test: ZIKV-induced cytopathic effect in U87 cells (immunofluorescence imaging); assay type: cell-based, Zika virus (strain H/PF/2013); conditions: U87, ZIKV MOI 1, 10 μM TH6744, 24, 48 or 72 h
# [12] = tested on: ZIKV; test: End-point dilution assay by CPE, ZIKV-infected Vero cells; assay type: cell-based, Zika virus (strain H/PF/2013); conditions: ZIKV MOI 0.1, increasing doses, 24 h
# [13] = tested on: ZIKV; test: ZIKV infection (NS1 intensity) and viral titer in human cerebral organoids; assay type: cell-based, Zika virus (strain H/PF/2013); conditions: ZIKV 2 × 10^4 particles/organoid, 5 μM
# [14] = tested on: ZIKV; test: Time-of-addition assay in ZIKV-infected U87 cells; assay type: cell-based, Zika virus (strain H/PF/2013)
# [15] = tested on: ZIKV; test: Viral budding assay in ZIKV-infected U87 cells; assay type: cell-based, Zika virus (strain H/PF/2013)
# [16] = tested on: human brain organoids; test: Viability and structure of ZIKV-infected human cerebral organoids; conditions: ZIKV 2 × 10^4 particles/organoid, 5 μM, 7 dpi and 10 dpi
# [17] = tested on: ZIKV; test: Time course of ZIKV replication in U87 cells (vRNA, infected cells, titer)
# [18] = U87, ZIKV MOI 10, 22 h then 5 μM for 2 h
# [19] = U87, ZIKV MOI 10, 22 h then 10 μM for 2 h
compound,measurement,setting,value
CCOC(=O)c1cnn(-c2cccc3c2[nH]c(=O)n3C2CCN(C(=O)Nc3ccc(I)cc3)CC2)c1 [TH6744],Viral Titer (ZIKV) (%),"[1]; U87, ZIKV MOI 10, compound 10 µM, 48 h, relative to DMSO",5%
same,"Infected Cells (U87, ZIKV) (%)","[1]; ZIKV MOI 10, compound 10 µM, 48 h, relative to DMSO",88%
same,inhibition at 10 µM,"[1]; U87, ZIKV MOI 10, compound 10 µM, 48 h, relative to DMSO, read-out: Inhibition of ZIKV titer (%)",95%
same,inhibition at 10 µM,"[1]; U87, ZIKV MOI 10, compound 10 µM, 48 h, relative to DMSO, read-out: Inhibition of primary ZIKV infection (%)",12%
same,"Infected Cells (U87, ZIKV)","[1]; screen, U87 cells, ZIKV",88%
same,Viral Titer (ZIKV),"[1]; screen, U87 cells, ZIKV",5%
same,"viability at 48 h, 10 µM","[2]; ZIKV MOI 10, compound 10 µM, 48 h, nuclei count relative to DMSO",105%
same,viability at 10 µM,[2]; screen,105%
same,inhibition at 10 µM,[3]; read-out: Inhibition of HAZV titer (%),90%
same,inhibition at 10 µM,[3]; read-out: Inhibition of primary HAZV infection (%),85%
same,"Infected Cells (SW13, HAZV)","[3]; screen, SW13 cells, HAZV",15%
same,Viral Titer (HAZV),"[3]; screen, SW13 cells, HAZV",10%
same,IC50,"[4]; 24 h, U87, MOI 1, 24 h, read-out: Antiviral on primary infection IC50",> 50 µM
same,IC50,"[4]; 24 h, U87, MOI 1, 24 h, read-out: Antiviral on titer (µM) IC50",> 50 µM
same,IC50,"[4]; 24 h, U87, MOI 10, 24 h, read-out: Antiviral on primary infection IC50",> 50 µM
same,IC50,"[4]; 24 h, U87, MOI 10, 24 h, read-out: Antiviral on titer (µM) IC50",10.3 µM
same,IC50,"[4]; 48 h, U87, MOI 1, 48 h, read-out: Antiviral on primary infection IC50",7.5 µM
same,IC50,"[4]; 48 h, U87, MOI 1, 48 h, read-out: Antiviral on titer (µM) IC50",4.4 µM
same,IC50,"[4]; 48 h, U87, MOI 10, 48 h, read-out: Antiviral on primary infection IC50",12.2 µM
same,IC50,"[4]; 48 h, U87, MOI 10, 48 h, read-out: Antiviral on titer (µM) IC50",9.2 µM
same,EC50,"[4]; ZIKV NS1 staining, read-out: EC50 [μM] Infected cells",7.5 µM
same,EC50,"[4]; end-point dilution assay, read-out: EC50 [μM] Viral titer",4.4 µM
same,IC50,"[5]; 24 h, MOI 1, 24 h, read-out: Antiviral on primary infection IC50",48.4 µM
same,IC50,"[5]; 24 h, MOI 1, 24 h, read-out: Antiviral on titer (µM) IC50",3.9 µM
same,IC50,"[5]; 24 h, MOI 10, 24 h, read-out: Antiviral on primary infection IC50",> 50 µM
same,IC50,"[5]; 24 h, MOI 10, 24 h, read-out: Antiviral on titer (µM) IC50",5.5 µM
same,IC50,"[5]; 48 h, MOI 1, 48 h, read-out: Antiviral on primary infection IC50",2.9 µM
same,IC50,"[5]; 48 h, MOI 1, 48 h, read-out: Antiviral on titer (µM) IC50",3.6 µM
same,IC50,"[5]; 48 h, MOI 10, 48 h, read-out: Antiviral on primary infection IC50",5.8 µM
same,IC50,"[5]; 48 h, MOI 10, 48 h, read-out: Antiviral on titer (µM) IC50",7.2 µM
same,EC50,"[6]; Homo sapiens, U-87 MG, U87, ZIKV MOI 1, 48 h, nuclei count, read-out: EC50 [μM] Living cells",> 50 µM
same,EC50,"[6]; Homo sapiens, U-87 MG, ZIKV, U87, MOI 10, 24 h, read-out: Viability (nuclei count) EC50",> 50 µM
same,EC50,"[6]; Homo sapiens, U-87 MG, ZIKV, U87, MOI 10, 48 h, read-out: Viability (nuclei count) EC50",> 50 µM
same,viability (nuclei count),"[6]; U87, ZIKV MOI 1, 24 hpi",without affecting the viability
same,EC50,"[6]; ZIKV, U87, MOI 1, 24 h, read-out: Viability (nuclei count) EC50",> 50 µM
same,EC50,"[6]; ZIKV, U87, MOI 1, 48 h, read-out: Viability (nuclei count) EC50",> 50 µM
same,EC50,"[7]; Chlorocebus sabaeus, MOI 10, 24 h",> 50 µM
same,EC50,"[7]; Chlorocebus sabaeus, MOI 10, 48 h",> 50 µM
same,EC50,"[7]; MOI 1, 24 h",> 50 µM
same,EC50,"[7]; MOI 1, 48 h",> 50 µM
same,CC50 at 24 h,"[8]; uninfected U87, 24 h",> 50 µM
same,CC50 at 48 h,"[8]; uninfected U87, 48 h",> 50 µM
same,CC50 at 72 h,"[8]; uninfected U87, 72 h",> 50 µM
same,IC50,[9],> 50 µM
same,CC50 at 24 h,[10],> 50 µM
same,CC50 at 48 h,[10],> 50 µM
same,CC50 at 72 h,[10],> 50 µM
same,effect on ZIKV-induced CPE in U87 cells,[11],reversed ZIKV-induced CPE
same,viral titer measured by CPEs,[12],reduced viral titer in a dose-dependent manner
same,ZIKV NS1 intensity in sectioned organoids (primary virus infection),[13]; 7 dpi,marked reduction
same,reduction of ZIKV progeny particles produced by the organoids,"[13]; all timepoints, relative to DMSO",70–80%
same,"reduction on viral titer, entry","[14]; U87, ZIKV MOI 10, 10 μM TH6744, 1 h pre-treatment and during inoculation, titer at 24 hpi",50%
same,"viral titer, post-inoculation","[14]; U87, ZIKV MOI 10, 10 μM TH6744 directly after inoculation for 24 h",pronounced reduction of viral titer
same,"titer reduction, virus budding","[14]; U87, ZIKV MOI 10, 10 μM TH6744 from 22 h after inoculation for 2 h",50%
same,infectivity of pre-budding and post-budding particles,"[15]; U87, ZIKV MOI 10, 2 h TH6744 treatment (5 or 10 μM), dose-dependent",reduced to a similar extent
same,Fraction of infectious ZIKV particles: Extracellular,[15]; [18],94.30%
same,Fraction of infectious ZIKV particles: Intracellular,[15]; [18],5.70%
same,Fraction of infectious ZIKV particles: Extracellular,[15]; [19],93.44%
same,Fraction of infectious ZIKV particles: Intracellular,[15]; [19],6.56%
same,phenotypic rescue (retained structure of organoids),[16],phenotypic rescue
same,ZIKV-infected cells,"[17]; U87, ZIKV MOI 1, 24 hpi",no reduction
same,reduction of extracellular vRNA levels,"[17]; U87, ZIKV MOI 1, 24 hpi",50%
same,reduction of viral titers,"[17]; U87, ZIKV MOI 1, 24 hpi",75%
same,intracellular ZIKV vRNA,"[17]; U87, ZIKV MOI 1, 24 hpi, qPCR",no reduction
same,intracellular ZIKV vRNA levels,"[17]; U87, ZIKV MOI 1, 48 hpi",remained unchanged
same,reduction of number of ZIKV-infected cells,"[17]; U87, ZIKV MOI 1, 48 hpi",65%
same,reduction of titer,"[17]; U87, ZIKV MOI 1, 48 hpi",83%
same,decrease of number of ZIKV-infected cells,"[17]; U87, ZIKV MOI 1, 72 h exposure",40%
same,decrease of viral titer,"[17]; U87, ZIKV MOI 1, 72 h exposure",63%
